# ChEMBL document CHEMBL5532698, “2,3-Dihydroquinazolin-4(1H)-ones and quinazolin-4(3H)-ones as broad-spectrum cytotoxic agents and their impact on tubulin polymerisation” (RSC Med Chem, 2024)
# Experiments:
# [1] = Cytotoxicity against human MCF-10A cells assessed as cell growth inhibition at 25 uM incubated for 72 hrs by MTT assay relative to control; type: toxicity, cell-based
# [2] = tested on: DU-145; test: Antiproliferative activity against human DU-145 cells assessed as cell growth inhibition incubated for 72 hrs by MTT assay; type: functional
# [3] = tested on: BE(2)-C; test: Antiproliferative activity against human BE2C cells assessed as cell growth inhibition incubated for 72 hrs by MTT assay; type: functional
# [4] = tested on: MIA PaCa-2; test: Antiproliferative activity against human MIA PaCa-2 cells assessed as cell growth inhibition incubated for 72 hrs by MTT assay; type: functional
# [5] = tested on: BE(2)-C; test: Antiproliferative activity against human BE2C cells assessed as cell growth inhibition at 25 uM incubated for 72 hrs by MTT assay relative to control; type: functional
# [6] = Antiproliferative activity against human SJG2 cells assessed as cell growth inhibition incubated for 72 hrs by MTT assay; type: functional; conditions: SJ-G2
# [7] = tested on: NCI-H460; test: Antiproliferative activity against human NCI-H460 cells assessed as cell growth inhibition at 25 uM incubated for 72 hrs by MTT assay relative to control; type: functional
# [8] = tested on: A-431; test: Antiproliferative activity against human A-431 cells assessed as cell growth inhibition incubated for 72 hrs by MTT assay; type: functional
# [9] = Cytotoxicity against human MCF-10A cells assessed as cell growth inhibition incubated for 72 hrs by MTT assay; type: toxicity, cell-based
# [10] = tested on: A2780; test: Antiproliferative activity against human A2780 cells assessed as cell growth inhibition incubated for 72 hrs by MTT assay; type: functional
# [11] = tested on: A-431; test: Antiproliferative activity against human A-431 cells assessed as cell growth inhibition at 25 uM incubated for 72 hrs by MTT assay relative to control; type: functional
# [12] = tested on: A2780; test: Antiproliferative activity against human A2780 cells assessed as cell growth inhibition at 25 uM incubated for 72 hrs by MTT assay relative to control; type: functional
# [13] = tested on: U-87 MG; test: Antiproliferative activity against human U87 cells assessed as cell growth inhibition at 25 uM incubated for 72 hrs by MTT assay relative to control; type: functional, U-87MG ATCC
# [14] = tested on: HT-29; test: Antiproliferative activity against human HT-29 cells assessed as cell growth inhibition at 25 uM incubated for 72 hrs by MTT assay relative to control; type: functional
# [15] = Antiproliferative activity against human SJG2 cells assessed as cell growth inhibition at 25 uM incubated for 72 hrs by MTT assay relative to control; type: functional; conditions: SJ-G2
# [16] = tested on: U-87 MG; test: Antiproliferative activity against human U87 cells assessed as cell growth inhibition incubated for 72 hrs by MTT assay; type: functional, U-87MG ATCC
# [17] = tested on: DU-145; test: Antiproliferative activity against human DU-145 cells assessed as cell growth inhibition at 25 uM incubated for 72 hrs by MTT assay relative to control; type: functional
# [18] = tested on: HT-29; test: Antiproliferative activity against human HT-29 cells assessed as cell growth inhibition incubated for 72 hrs by MTT assay; type: functional
# [19] = tested on: MCF7; test: Antiproliferative activity against human MCF7 cells assessed as cell growth inhibition incubated for 72 hrs by MTT assay; type: functional
# [20] = tested on: NCI-H460; test: Antiproliferative activity against human NCI-H460 cells assessed as cell growth inhibition incubated for 72 hrs by MTT assay; type: functional
# [21] = tested on: MCF7; test: Antiproliferative activity against human MCF7 cells assessed as cell growth inhibition at 25 uM incubated for 72 hrs by MTT assay relative to control; type: functional
# [22] = tested on: MIA PaCa-2; test: Antiproliferative activity against human MIA PaCa-2 cells assessed as cell growth inhibition at 25 uM incubated for 72 hrs by MTT assay relative to control; type: functional
Structure (SMILES),GI50 [2] [µM],GI50 [4] [µM],GI50 [8] [µM],GI50 [10] [µM],GI50 [16] [µM],GI50 [18] [µM],GI50 [19] [µM],GI50 [20] [µM],"inhibition at 72 h, 25 µM [1] [%]",GI50 [3] [µM],inhibition at 25 µM [5] [%],GI50 [6] [µM],inhibition at 25 µM [7] [%],GI50 at 72 h [9] [µM],inhibition at 25 µM [11] [%],inhibition at 25 µM [12] [%],inhibition at 25 µM [13] [%],inhibition at 25 µM [14] [%],inhibition at 25 µM [15] [%],inhibition at 25 µM [17] [%],also measured
CCCCCCCCC1NC(=O)c2ccccc2N1 (stereo unspecified),> 50,12,7.1,4.2,> 50,13,2.9,14,80,9.2,85,13,61,11,91,96,39,93,77,53,inhibition at 25 µM [21]: > 100%; inhibition at 25 µM [22]: 75%
O=C1NC(c2ccc([N+](=O)[O-])cc2)Nc2ccccc21 (stereo unspecified),26,7.5,17,11,> 50,8.7,3.8,14,58,10,53,10,61,11,57,65,22,70,56,50,inhibition at 25 µM [21]: > 100%; inhibition at 25 µM [22]: 52%
O=C1NC(c2ccc(Br)cc2)Nc2ccccc21 (stereo unspecified),3.3,3.2,3.1,3.1,4.7,2.9,3.6,3.2,95,2.6,> 100,2.5,97,4,> 100,99,88,> 100,> 100,> 100,inhibition at 25 µM [21]: 89%; inhibition at 25 µM [22]: 90%
N#Cc1ccc2[nH]cc(-c3nc4ccccc4c(=O)[nH]3)c2c1,2.8,3.5,4.9,2.7,3.2,3.9,2.7,2.5,,3.4,,2.8,,3.5,,,,,,,
O=C1NC(c2cccc([N+](=O)[O-])c2)Nc2ccccc21 (stereo unspecified),45,20,20,18,> 50,17,6.7,24,54,19,58,22,59,21,67,69,20,78,61,33,inhibition at 25 µM [21]: > 100%; inhibition at 25 µM [22]: 56%
O=c1[nH]c(/C=C/c2ccc(Br)cc2)nc2ccccc12,8.9,14,11,3.6,13,3.2,3.1,11,86,6.4,78,15,70,4.6,78,93,83,94,76,77,inhibition at 25 µM [21]: > 100%; inhibition at 25 µM [22]: 68%
CC(C)(C)c1ccc(C2NC(=O)c3ccccc3N2)cc1 (stereo unspecified),35,14,> 50,15,> 50,9.7,8.4,> 50,53,20,47,> 50,44,19,32,63,40,79,46,47,inhibition at 25 µM [21]: > 100%; inhibition at 25 µM [22]: 60%
O=C1NC(c2cccs2)Nc2ccccc21 (stereo unspecified),25,18,7.4,4.7,23,7.6,11,15,84,9.3,91,23,88,15,> 100,98,56,90,60,57,inhibition at 25 µM [21]: 91%; inhibition at 25 µM [22]: 74%

# Further compounds by falling GI50 [2], results first:
GI50 [2] [µM],GI50 [4] [µM],GI50 [8] [µM],GI50 [10] [µM],GI50 [16] [µM],GI50 [18] [µM],GI50 [19] [µM],GI50 [20] [µM],Structure (SMILES),"inhibition at 72 h, 25 µM [1] [%]",GI50 [3] [µM],inhibition at 25 µM [5] [%],GI50 [6] [µM],inhibition at 25 µM [7] [%],GI50 at 72 h [9] [µM],inhibition at 25 µM [11] [%],inhibition at 25 µM [12] [%],inhibition at 25 µM [13] [%],inhibition at 25 µM [14] [%],inhibition at 25 µM [15] [%],inhibition at 25 µM [17] [%],also measured
4.3,4.2,2.3,2.5,10,2.4,3.7,3.6,O=C1NC(c2ccccc2Br)Nc2ccccc21 (stereo unspecified),94,2.5,> 100,3,95,4.3,> 100,96,80,> 100,> 100,100,inhibition at 25 µM [21]: 82%; inhibition at 25 µM [22]: 89%
3,4.4,2.7,2.9,3.2,2.9,5.6,3.2,O=C1NC(c2cccc(C(F)(F)F)c2)Nc2ccccc21 (stereo unspecified),> 100,3.1,> 100,3.3,100,3.1,> 100,100,> 100,> 100,> 100,> 100,inhibition at 25 µM [21]: 83%; inhibition at 25 µM [22]: 95%
0.35,0.34,0.28,0.3,0.48,0.35,0.22,0.37,O=c1[nH]c(/C=C/c2ccc(O)cc2)nc2ccccc12,> 100,0.25,> 100,0.29,> 100,0.38,> 100,> 100,> 100,> 100,> 100,> 100,inhibition at 25 µM [21]: > 100%; inhibition at 25 µM [22]: > 100%
